Results published in US12077503B2, “Substituted cyclic amides and their use as herbicides” (FMC CORPORATION, priority 2015, dated 2024).

Tests used:
Assay type in all cases: in vivo
[1] = system: redroot pigweed (Amaranthus retroflexus); assay: Test G Post-Emergence Protocol; details: Amaranthus retroflexus, post-emergence, 312 h, read-out: Pigweed, Redroot damage rating
How it was run: (§1)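 Values are percent visual injury at 13 days after treatment (0 none, 100 total). Treatment was a post-emergence spray at 15.625, 62.5 or 250 g/ha on 8-day-old pot plants kept at 24/16 °C.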

[2] = system: barnyardgrass (Echinochloa crus-galli); assay: Test G Post-Emergence Protocol; details: Echinochloa crus-galli, post-emergence, 312 h, read-out: Barnyardgrass damage rating
How it was run: as §1

[3] = system: velvetleaf (Abutilon theophrasti); assay: Test G Post-Emergence Protocol; details: Abutilon theophrasti, post-emergence, 312 h, read-out: Velvetleaf damage rating
How it was run: as §1

[4] = system: giant foxtail (Setaria faberi); assay: Test G Post-Emergence Protocol; details: Setaria faberi, post-emergence, 312 h, read-out: Foxtail, Giant damage rating
How it was run: as §1

[5] = system: corn (Zea mays); assay: Test G Post-Emergence Protocol; details: Zea mays, post-emergence, 312 h, read-out: Corn damage rating
How it was run: as §1

[6] = system: ivy-leaved morning glory (Ipomoea hederacea); assay: Test G Post-Emergence Protocol; details: Ipomoea, post-emergence, 312 h, read-out: Morningglory, Ivy-leaved damage rating
How it was run: as §1

[7] = system: redroot pigweed (Amaranthus retroflexus); assay: Test G Pre-Emergence Protocol; details: Amaranthus retroflexus, pre-emergence, 312 h, evaluated after 13 days
How it was run: (§2)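 Under a 24/16° C day/night regime with 14 h light and 65% humidity, sown pots were sprayed after one day with compound (15.625, 62.5 or 250 g/ha; 50:50 acetone/water, 0.5% Tween 20). Damage was assessed visually 13 days later, 0 to 100.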

[8] = system: barnyardgrass (Echinochloa crus-galli); assay: Test G Pre-Emergence Protocol; details: Echinochloa crus-galli, pre-emergence, 312 h, evaluated after 13 days
How it was run: as §2

[9] = system: velvetleaf (Abutilon theophrasti); assay: Test G Pre-Emergence Protocol; details: Abutilon theophrasti, pre-emergence, 312 h, evaluated after 13 days
How it was run: as §2

[10] = system: giant foxtail (Setaria faberi); assay: Test G Pre-Emergence Protocol; details: Setaria faberi, pre-emergence, 312 h, evaluated after 13 days
How it was run: as §2

[11] = system: corn (Zea mays); assay: Test G Pre-Emergence Protocol; details: Zea mays, pre-emergence, 312 h, evaluated after 13 days
How it was run: as §2

[12] = system: ivy-leaved morning glory (Ipomoea hederacea); assay: Test G Pre-Emergence Protocol; details: Ipomoea, pre-emergence, 312 h, evaluated after 13 days, read-out: Morningglory, Ivy-leaved damage rating (100=total damage to plant; 0=no damage to plant)
How it was run: as §2

[13] = 15.625 g ai/ha, evaluated after 13 days (100=total damage to plant; 0=no damage to plant)
[14] = 62.5 g ai/ha, evaluated after 13 days, 100=total damage to plant, 0=no damage to plant
[15] = 250 g ai/ha, evaluated after 13 days, 100=total damage to plant, 0=no damage to plant

Compound `CN1C[C@H](c2cc(C(C)(C)C)ncn2)[C@@H](C(=O)Nc2cccc(F)c2F)C1=O` (racemic) [Compound 1667] has a pest or weed control at 15.625 g/ha [1, 13] of 0%, a pest or weed control at 62.5 g/ha [1, 14] of 0% and a pest or weed control at 250 g/ha [1, 15] of 0%. For the same compound, the pest or weed control at 15.625 g/ha [2, 13] was 0%, the pest or weed control at 62.5 g/ha [2, 14] was 0% and the pest or weed control at 250 g/ha [2, 15] was 10%. For the same compound, the pest or weed control at 15.625 g/ha [3, 13] was 0%, the pest or weed control at 62.5 g/ha [3, 14] was 0% and the pest or weed control at 250 g/ha [3, 15] was 0%. For the same compound, the pest or weed control at 15.625 g/ha [4, 13] was 0%, the pest or weed control at 62.5 g/ha [4, 14] was 0% and the pest or weed control at 250 g/ha [4, 15] was 20%. The plant injury at 15.625 g/ha [5, 13] was 0%, the plant injury at 62.5 g/ha [5, 14] was 0% and the plant injury at 250 g/ha [5, 15] was 0%. For the same compound, the pest or weed control at 15.625 g/ha [6, 13] was 0%, the pest or weed control at 62.5 g/ha [6, 14] was 0% and the pest or weed control at 250 g/ha [6, 15] was 0%. It also gave a pest or weed control at 15.625 g/ha ([7]; 15.625 g ai/ha, read-out: Pigweed, Redroot damage rating (100=total damage to plant; 0=no damage to plant)) of 0%, a pest or weed control at 62.5 g/ha ([7]; 62.5 g ai/ha, 100=total damage to plant, 0=no damage to plant, read-out: Pigweed, Redroot damage rating) of 0% and a pest or weed control at 250 g/ha ([7]; 250 g ai/ha, read-out: Pigweed, Redroot damage rating (100=total damage to plant; 0=no damage to plant)) of 0%. The pest or weed control at 15.625 g/ha ([8]; 15.625 g ai/ha, read-out: Barnyardgrass damage rating (100=total damage to plant; 0=no damage to plant)) was 0%, the pest or weed control at 62.5 g/ha ([8]; 62.5 g ai/ha, 100=total damage to plant, 0=no damage to plant, read-out: Barnyardgrass damage rating) was 10% and the pest or weed control at 250 g/ha ([8]; 250 g ai/ha, read-out: Barnyardgrass damage rating (100=total damage to plant; 0=no damage to plant)) was 20%. The pest or weed control at 15.625 g/ha ([9]; 15.625 g ai/ha, read-out: Velvetleaf damage rating (100=total damage to plant; 0=no damage to plant)) was 0%, the pest or weed control at 62.5 g/ha ([9]; 62.5 g ai/ha, 100=total damage to plant, 0=no damage to plant, read-out: Velvetleaf damage rating) was 0% and the pest or weed control at 250 g/ha ([9]; 250 g ai/ha, read-out: Velvetleaf damage rating (100=total damage to plant; 0=no damage to plant)) was 0%. For the same compound, the pest or weed control at 15.625 g/ha ([10]; 15.625 g ai/ha, read-out: Foxtail, Giant damage rating (100=total damage to plant; 0=no damage to plant)) was 0%, the pest or weed control at 62.5 g/ha ([10]; 62.5 g ai/ha, 100=total damage to plant, 0=no damage to plant, read-out: Foxtail, Giant damage rating) was 10% and the pest or weed control at 250 g/ha ([10]; 250 g ai/ha, read-out: Foxtail, Giant damage rating (100=total damage to plant; 0=no damage to plant)) was 20%. The plant injury at 15.625 g/ha ([11]; 15.625 g ai/ha, read-out: Corn damage rating (100=total damage to plant; 0=no damage to plant)) was 0%, the plant injury at 62.5 g/ha ([11]; 62.5 g ai/ha, 100=total damage to plant, 0=no damage to plant, read-out: Corn damage rating) was 0% and the plant injury at 250 g/ha ([11]; 250 g ai/ha, read-out: Corn damage rating (100=total damage to plant; 0=no damage to plant)) was 0%. For the same compound, the pest or weed control at 15.625 g/ha ([12]; 15.625 g ai/ha) was 0% and the pest or weed control at 250 g/ha ([12]; 250 g ai/ha) was 30%.
